Test results from patent publication US7563781B2, “Triazolopyrimidine derivatives” (Janssen Pharmaceutica NV, priority 2006, dated 2009).

What was measured:
[1] = molecular target: T1, Focal Adhesion Kinase (full-length Flag-tagged human FAK) (Homo sapiens, UniProt Q05397); assay: in vitro FAK ELISA kinase assay; type: biochemical; conditions: compound 10 uM; ATP 2 uM; read-out: FAK % Inhib ave: 10 uM
T1 construct: a purified recombinant full-length Flag-tagged human FAK protein; Flag; made in house; host or cells: baculovirus infected insect cells
T1 sequence (Q05397 whole entry): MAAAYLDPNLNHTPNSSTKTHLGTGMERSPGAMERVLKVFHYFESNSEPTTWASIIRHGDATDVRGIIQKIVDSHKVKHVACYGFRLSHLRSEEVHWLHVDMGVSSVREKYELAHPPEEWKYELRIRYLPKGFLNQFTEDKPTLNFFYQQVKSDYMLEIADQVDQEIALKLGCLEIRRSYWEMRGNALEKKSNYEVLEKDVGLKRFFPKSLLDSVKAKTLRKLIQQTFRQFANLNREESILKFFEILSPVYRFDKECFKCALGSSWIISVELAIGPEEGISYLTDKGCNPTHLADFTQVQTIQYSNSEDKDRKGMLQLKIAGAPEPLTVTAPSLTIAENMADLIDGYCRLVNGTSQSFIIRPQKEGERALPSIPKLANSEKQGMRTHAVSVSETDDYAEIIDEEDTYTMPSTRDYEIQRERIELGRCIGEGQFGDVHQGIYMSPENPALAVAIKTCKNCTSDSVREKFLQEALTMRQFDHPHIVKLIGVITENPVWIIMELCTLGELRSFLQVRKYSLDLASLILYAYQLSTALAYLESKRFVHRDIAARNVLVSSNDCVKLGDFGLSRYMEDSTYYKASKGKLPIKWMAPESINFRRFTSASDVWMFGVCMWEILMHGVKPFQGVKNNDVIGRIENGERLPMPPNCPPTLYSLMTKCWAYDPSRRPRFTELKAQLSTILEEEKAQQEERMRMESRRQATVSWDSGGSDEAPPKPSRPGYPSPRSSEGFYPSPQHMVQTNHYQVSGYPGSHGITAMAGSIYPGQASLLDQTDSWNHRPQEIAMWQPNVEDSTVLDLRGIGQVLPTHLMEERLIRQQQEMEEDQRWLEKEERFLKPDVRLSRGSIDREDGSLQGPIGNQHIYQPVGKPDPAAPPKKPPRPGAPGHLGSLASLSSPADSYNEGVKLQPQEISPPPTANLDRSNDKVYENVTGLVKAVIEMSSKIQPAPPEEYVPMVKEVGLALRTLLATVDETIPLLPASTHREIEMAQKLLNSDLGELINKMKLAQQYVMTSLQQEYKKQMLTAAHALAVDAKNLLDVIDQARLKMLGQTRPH
How it was run: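 Plate-coated GST fusion of the 73-residue region around Tyr397 phosphorylated by full-length Flag-tagged human FAK from baculovirus-infected insect cells, with 2 μM ATP in Mg/Mn HEPES pH 7.5, 1 h at 30 °C. Phosphotyrosine detected by HRP-anti-pTyr ELISA with TMB read-out. Compounds screened at 10 μM or titrated from 50 μM in half-log steps for IC50, BSA-substrate background subtracted.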

[2] = molecular target: T2, CAK complex (human Cdk7, human Cyclin H, MAT-1) (Homo sapiens, UniProt P50613); assay: in vitro time-resolved-fluorescence assay for the CAK kinase activity; type: biochemical; conditions: compound 20 uM; read-out: CAK % inhib; 20 uM
T2 construct: made in house; host or cells: SF-900 insect cells co-infected with Flag-Cdk7 and Bab-Cyclin H baculoviruses
T2 sequence (P50613 with tags, fused parts or gaps): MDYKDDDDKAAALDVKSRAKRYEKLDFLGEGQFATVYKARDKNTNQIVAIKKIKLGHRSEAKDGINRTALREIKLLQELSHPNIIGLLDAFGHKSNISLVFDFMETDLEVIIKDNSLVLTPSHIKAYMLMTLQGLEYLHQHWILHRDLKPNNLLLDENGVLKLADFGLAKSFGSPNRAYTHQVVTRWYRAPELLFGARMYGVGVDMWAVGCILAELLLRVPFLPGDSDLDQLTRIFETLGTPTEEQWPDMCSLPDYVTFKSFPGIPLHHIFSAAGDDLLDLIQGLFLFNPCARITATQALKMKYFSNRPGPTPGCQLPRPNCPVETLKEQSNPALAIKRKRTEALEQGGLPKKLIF
T2 sequence (as listed by the source partner): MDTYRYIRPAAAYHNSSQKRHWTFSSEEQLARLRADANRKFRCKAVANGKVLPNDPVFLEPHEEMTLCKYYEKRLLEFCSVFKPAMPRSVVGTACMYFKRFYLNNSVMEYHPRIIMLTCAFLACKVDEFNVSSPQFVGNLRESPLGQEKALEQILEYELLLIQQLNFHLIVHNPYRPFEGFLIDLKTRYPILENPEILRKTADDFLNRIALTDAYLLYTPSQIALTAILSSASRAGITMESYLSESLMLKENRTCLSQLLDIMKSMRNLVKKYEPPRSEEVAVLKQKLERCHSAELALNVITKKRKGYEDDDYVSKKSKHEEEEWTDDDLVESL
How it was run: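 Kinase activity of the human CAK complex (Flag-tagged Cdk7, Cyclin H, MAT-1), purified from co-infected SF-900 insect cells by Flag-M2 immunoaffinity, was measured by time-resolved fluorescence. In black glutathione-coated 96-well plates, 500 ng GST-CTD substrate with 22 uM ATP was mixed with compound in 30% DMSO/25 mM Hepes and 250 ng CAK. Plates were incubated 20 minutes at 30° C, then stopped with EDTA, bound overnight and washed. A Europium-labeled antibody detected serine-phosphorylated CTD.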

`O=C(NCCCn1ccnc1)c1cccc(Nc2ncc3nnn(-c4ccc5c(c4)CCC5)c3n2)c1` [Compound 79, N-(3-Imidazol-1-yl-propyl)-3-(3-indan-5-yl-3H-[1,2,3]triazolo[4,5-d]pyrimidin-5-ylamino)-benzamide] gave an inhibition at 10 µM [1] of 80% and an inhibition at 20 µM [2] of 86.6%.
`O=C(NCCCN1CCCC1=O)c1cccc(Nc2ncc3nnn(-c4ccc5c(c4)CCC5)c3n2)c1` [Compound 80, 3-(3-Indan-5-yl-3H-[1,2,3]triazolo[4,5-d]pyrimidin-5-ylamino)-N-[3-(2-oxo-pyrrolidin-1-yl)-propyl]-benzamide] showed an inhibition at 10 µM [1] of 33.9% and an inhibition at 20 µM [2] of 17.9%.
Work on `CN1CCN(CCCNC(=O)c2cccc(Nc3ncc4nnn(-c5ccc6c(c5)CCC6)c4n3)c2)CC1` [Compound 81, 3-(3-Indan-5-yl-3H-[1,2,3]triazolo[4,5-d]pyrimidin-5-ylamino)-N-[3-(4-methyl-piperazin-1-yl)-propyl]-benzamide] yielded an inhibition at 10 µM [1] of 58.1% and an inhibition at 20 µM [2] of 99.7%.
Work on `OCCCOc1ccc(Nc2ncc3nnn(-c4ccc5c(c4)CCC5)c3n2)cc1` [Compound 82, 3-[4-(3-Indan-5-yl-3H-[1,2,3]triazolo[4,5-d]pyrimidin-5-ylamino)-phenoxy]-propan-1-ol] yielded an inhibition at 10 µM [1] of 13.5% and an inhibition at 20 µM [2] of 5.06%.
`CCN(CC)CCNC(=O)c1ccc(Nc2ncc3nnn(-c4ccc(C5CCCCC5)cc4)c3n2)cc1` [Compound 83, 4-[3-(4-Cyclohexyl-phenyl)-3H-[1,2,3]triazolo[4,5-d]pyrimidin-5-ylamino]-N-(2-diethylamino-ethyl)-benzamide] showed an inhibition at 10 µM [1] of 28.7% and an inhibition at 20 µM [2] of 5.45%.
Compound `CCN(CC)CCNC(=O)c1ccc(Nc2ncc3nnn(-c4cccc(-c5cnco5)c4)c3n2)cc1` [Compound 84, N-(2-Diethylamino-ethyl)-4-[3-(3-oxazol-5-yl-phenyl)-3H-[1,2,3]triazolo[4,5-d]pyrimidin-5-ylamino]-benzamide] has an inhibition at 10 µM [1] of 46.6% and an inhibition at 20 µM [2] of -58.9%.
`c1cc(Nc2ncc3nnn(-c4cccc(-c5cnco5)c4)c3n2)cc(-c2cnco2)c1` [Compound 85, (3-Oxazol-5-yl-phenyl)-[3-(3-oxazol-5-yl-phenyl)-3H-[1,2,3]triazolo[4,5-d]pyrimidin-5-yl]-amine] was tested, and the inhibition at 10 µM [1] was 47.8% and the inhibition at 20 µM [2] was 9.49%.
`CCCCNS(=O)(=O)c1ccc(OC)c(-n2nnc3cnc(Nc4ccc(C(=O)NCCN(CC)CC)cc4)nc32)c1` [Compound 86, 4-[3-(5-Butylsulfamoyl-2-methoxy-phenyl)-3H-[1,2,3]triazolo[4,5-d]pyrimidin-5-ylamino]-N-(2-diethylamino-ethyl)-benzamide] gave an inhibition at 10 µM [1] of 65.1% and an inhibition at 20 µM [2] of 110%.
`CCN(CC)CCCOc1ccc(Nc2ncc3nnn(-c4ccc5c(c4)CCC5)c3n2)cc1` [Compound 87, [4-(3-Diethylamino-propoxy)-phenyl]-(3-indan-5-yl-3H-[1,2,3]triazolo[4,5-d]pyrimidin-5-yl)-amine] gave an inhibition at 10 µM [1] of 81.5% and an inhibition at 20 µM [2] of 99.5%.
Compound `CN(CCO)CCCOc1ccc(Nc2ncc3nnn(-c4ccc5c(c4)CCC5)c3n2)cc1` [Compound 88, 2-({3-[4-(3-Indan-5-yl-3H-[1,2,3]triazolo[4,5-d]pyrimidin-5-ylamino)-phenoxy]-propyl}-methyl-amino)-ethanol] has an inhibition at 10 µM [1] of 92.3% and an inhibition at 20 µM [2] of 103%.
`CN(CCCOc1ccc(Nc2ncc3nnn(-c4ccc5c(c4)CCC5)c3n2)cc1)CC(=O)O` [Compound 89, ({3-[4-(3-Indan-5-yl-3H-[1,2,3]triazolo[4,5-d]pyrimidin-5-ylamino)-phenoxy]-propyl]-methyl-amino)-acetic acid] was tested, and the inhibition at 10 µM [1] was 73.4% and the inhibition at 20 µM [2] was 97.6%.
In the case of `CN(CCCOc1ccc(Nc2ncc3nnn(-c4ccc5c(c4)CCC5)c3n2)cc1)Cc1ccccc1` [Compound 90, {4-[3-(Benzyl-methyl-amino)-propoxy]-phenyl}-(3-indan-5-yl-3H-[1,2,3]triazolo[4,5-d]pyrimidin-5-yl)-amine], the inhibition at 10 µM [1] is reported as 31.7% and the inhibition at 20 µM [2] is reported as 47.5%.
Work on `c1cc(OCCCN2CCOCC2)ccc1Nc1ncc2nnn(-c3ccc4c(c3)CCC4)c2n1` [Compound 91, (3-Indan-5-yl-3H-[1,2,3]triazolo[4,5-d]pyrimidin-5-yl)-[4-(3-morpholin-4-yl-propoxy)-phenyl]-amine] yielded an inhibition at 10 µM [1] of 10.4% and an inhibition at 20 µM [2] of 48.7%.
`c1cc(OCCCN2CCCC2)ccc1Nc1ncc2nnn(-c3ccc4c(c3)CCC4)c2n1` [Compound 92, (3-Indan-5-yl-3H-[1,2,3]triazolo[4,5-d]pyrimidin-5-yl)-[4-(3-pyrrolidin-1-yl-propoxy)-phenyl]-amine] was tested, and the inhibition at 10 µM [1] was 91.2% and the inhibition at 20 µM [2] was 103%.
`OC1CCN(CCCOc2ccc(Nc3ncc4nnn(-c5ccc6c(c5)CCC6)c4n3)cc2)C1` (stereo not drawn) [Compound 93, 1-{3-[4-(3-Indan-5-yl-3H-[1,2,3]triazolo[4,5-d]pyrimidin-5-ylamino)-phenoxy]-propyl}-pyrrolidin-3-ol] gave an inhibition at 10 µM [1] of 90.8% and an inhibition at 20 µM [2] of 101%.
